Measured values taken from US11149021B2, “N-(azaaryl)cyclolactam-1-carboxamide derivative, preparation method therefor, and use thereof” (Abbisko Therapeutics Co., Ltd., priority 2017, dated 2021).
Read-outs that look alike come from different tables or passages of the source.

What was measured:
[1] = system: M-NFS-60 mouse myeloid leukemia lymphocytes; experiment: CSF-1R cell proliferation study (Cell Titer Glo); assay type: cell-based; conditions: Lymphocyte, 72 h;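 also: M-CSF-driven proliferation, viable cells quantified as ATP by luminescence, compounds tested as 3-fold serial dilutions, values from four-parameter curve fits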
[2] = system: M-07e human cytomegalic leukemia cells; experiment: CSF-1R-related cell proliferation experiment, KIT (Cell Titer Glo); assay type: cell-based; conditions: 72 h, read-out: Cytological experiment KIT IC50 (nM)
[3] = system: MV-4-11 human acute monocytic leukemia cells; experiment: CSF-1R-related cell proliferation experiment, FLT3 (Cell Titer Glo); assay type: cell-based; conditions: MV4-11, 72 h, read-out: Cytological experiment FLT3 IC50 (nM)
[4] = system: NCI-H1703 human non-small cell lung squamous carcinoma cells; experiment: CSF-1R-related cell proliferation experiment, PDGFRA (Cell Titer Glo); assay type: cell-based; conditions: NCI-H1703, 72 h, read-out: Cytological experiment PDGERA IC50 (nM)
[5] = target: T1, CSF-1R (Homo sapiens, UniProt P07333); experiment: CSF-1R in vitro biochemical kinase study (ADP-Glo assay)
T1 construct: 3.95 nM of CSF-1R, 500 μM of ATP

[6] = read-out: Cytological experiment CS1-1R Absolute IC50 (nM)
[7] = read-out: Cytological experiment CSF-1R IC50 (nM)

T1 sequence (P07333 20-972): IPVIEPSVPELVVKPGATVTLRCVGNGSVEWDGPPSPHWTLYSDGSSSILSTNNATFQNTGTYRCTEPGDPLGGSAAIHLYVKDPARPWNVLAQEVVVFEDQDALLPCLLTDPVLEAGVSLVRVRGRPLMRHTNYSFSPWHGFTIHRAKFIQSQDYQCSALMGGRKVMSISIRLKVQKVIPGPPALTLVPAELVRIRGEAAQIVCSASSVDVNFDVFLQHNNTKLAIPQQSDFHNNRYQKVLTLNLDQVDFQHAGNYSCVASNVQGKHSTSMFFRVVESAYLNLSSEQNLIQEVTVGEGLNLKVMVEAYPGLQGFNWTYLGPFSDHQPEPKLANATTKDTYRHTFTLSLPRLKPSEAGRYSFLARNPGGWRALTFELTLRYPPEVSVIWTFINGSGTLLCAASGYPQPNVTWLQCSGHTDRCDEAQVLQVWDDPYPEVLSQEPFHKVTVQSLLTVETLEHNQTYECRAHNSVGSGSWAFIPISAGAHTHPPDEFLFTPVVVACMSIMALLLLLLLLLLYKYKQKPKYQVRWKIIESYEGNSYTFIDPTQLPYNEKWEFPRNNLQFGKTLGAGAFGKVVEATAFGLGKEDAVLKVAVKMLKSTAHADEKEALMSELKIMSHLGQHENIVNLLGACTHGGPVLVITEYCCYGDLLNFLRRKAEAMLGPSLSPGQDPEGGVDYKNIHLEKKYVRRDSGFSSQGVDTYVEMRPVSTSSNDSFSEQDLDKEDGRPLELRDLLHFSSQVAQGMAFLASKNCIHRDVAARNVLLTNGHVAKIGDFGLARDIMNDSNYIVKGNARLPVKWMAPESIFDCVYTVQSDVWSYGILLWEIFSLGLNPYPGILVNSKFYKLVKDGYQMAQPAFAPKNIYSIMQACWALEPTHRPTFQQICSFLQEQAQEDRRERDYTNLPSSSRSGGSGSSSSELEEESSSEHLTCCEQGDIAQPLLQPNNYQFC

IC50 [1, 6] [nM]	IC50 [1, 7] [nM]	IC50 [2] [nM]	IC50 [3] [nM]	IC50 [4] [nM]	IC50 [5] [nM]	Compound
35.5	43.5	> 1120	> 6000	> 2000	21.4	[2H]C([2H])([2H])n1cc(-c2cc(Oc3ccc(NC(=O)N4CCC(C)(C)C4=O)nc3C)ccn2)cn1 [Example 11, 3,3-dimethyl-N-(6-methyl-5-((2-(1-(methyl-d3)-1H-pyrazol-4-yl)pyridin-4-yl)oxy)pyridin-2-yl)-2-oxopyrrolidine-1-carboxamide]
245	263				99.7	Cc1nc(NC(=O)N2CCC(C)(C)C2=O)ccc1Oc1ccnc(-c2cnn(C(C)C)c2)c1 [Example 13, N-(5-((2-(1-isopropyl-1H-pyrazol-4-yl)pyridin-4-yl)oxy)-6-methylpyridin-2-yl)-3,3-dimethyl-2-oxopyrrolidine-1-carboxamide]
115	118				46.4	CCCn1cc(-c2cc(Oc3ccc(NC(=O)N4CCC(C)(C)C4=O)nc3C)ccn2)cn1 [Example 14, 3,3-dimethyl-N-(6-methyl-5-((2-(1-propyl-1H-pyrazol-4-yl)pyridin-4-yl)oxy)pyridin-2-yl)-2-oxopyrrolidine-1-carboxamide]
38.7	64.4	> 1120	> 6000	> 6000	20.7	Cc1nc(NC(=O)N2CCC(C)(C)C2=O)ccc1Oc1ccnc(-c2cnn(C3CC3)c2)c1 [Example 15, N-(5-((2-(1-cyclopropyl-1H-pyrazol-4-yl)pyridin-4-yl)oxy)-6-methylpyridin-2-yl)-3,3-dimethyl-2-oxopyrrolidine-1-carboxamide]
647	644				176	Cc1nc(NC(=O)N2CCC(C)(C)C2=O)ccc1Oc1ccnc(-c2cn(C)cn2)c1 [Example 19, 3,3-dimethyl-N-(6-methyl-5-((2-(1-methyl-1H-imidazol-4-yl)pyridin-4-yl)oxy)pyridin-2-yl)-2-oxopyrrolidine-1-carboxamide]
31.2	45.2	727	> 2000	> 6000	59.9	Cc1nc(NC(=O)N2CCC(C)(C)C2=O)ccc1Cc1ccnc(-c2cnn(C)c2)c1 [Example 21, 3,3-dimethyl-N-(6-methyl-5-((2-(1-methyl-1H-pyrazol-4-yl)pyridin-4-yl)methyl)pyridin-2-yl)-2-oxopyrrolidine-1-carboxamide]
500	500				249	Cc1nc(NC(=O)N2CCC(C)(C)C2=O)ccc1Oc1ccnc(-c2cnn(C)c2)n1 [Example 22, 3,3-dimethyl-N-(6-methyl-5-((2-(1-methyl-1H-pyrazol-4-yl)pyrimidin-4-yl)oxy)pyridin-2-yl)-2-oxopyrrolidine-1-carboxamide]
384	620				83	CC(=O)Nc1cc(Oc2ccc(NC(=O)N3CCC(C)(C)C3=O)nc2C)ccn1 [Example 23, N-(5-((2-acetylamidopyridin-4-yl)oxy)-6-methylpyridin-2-yl)-3,3-dimethyl-2-oxopyrrolidine-1-carboxamide]
164	221				56.6	Cc1nc(NC(=O)N2CCC(C)(C)C2=O)ccc1Oc1ccnc(NC(=O)N2CCN(C)CC2)c1 [Example 24, N-(4-((6-(3,3-dimethyl-2-oxopyrrolidine-1-carboxamido)-2-methylpyridin-3-yl)oxy)pyridin-2-yl)-4-methylpiperazine-1-carboxamide]
1990	1920				1120	Cc1nc(NC(=O)N2CCC(C)(C)C2=O)ccc1Oc1ccnc(NC(=O)C2CCN(C)CC2)c1 [Example 25, N-(4-((6-(3,3-dimethyl-2-oxopyrrolidine-1-carboxamido)-2-methylpyridin-3-yl)oxy)pyridin-2-yl)-1-methylpiperidine-4-carboxamide]
157	161				75.2	Cc1nc(NC(=O)N2CCC(C)(C)C2=O)ccc1Oc1ccnc(NC(=O)C2CC2)c1 [Example 26, N-(5-((2-(cyclopropane-carboxamido)pyridin-4-yl)oxy)-6-methylpyridin-2-yl)-3,3-dimethyl-2-oxopyrrolidine-1-carboxamide]
441	487				135	CNC(=O)c1cc(Oc2ccc(NC(=O)N3CCC(C)(C)C3=O)nc2C)ccn1 [Example 27, 4-((6-(3,3-dimethyl-2-oxopyrrolidine-1-carboxamido)-2-methylpyridin-3-yl)oxy)-N-methylpicolinamide]
1160	1380				98.3	CCCC1(CCC)CCN(C(=O)Nc2ccc(Oc3ccnc(-c4cnn(C)c4)c3)c(C)n2)C1=O [Example 30, N-(6-methyl-5-((2-(1-methyl-1H-pyrazol-4-yl)pyridin-4-yl)oxy)pyridin-2-yl)-2-oxo-3,3-dipropylpyrrolidine-1-carboxamide]
19.4	19.2	190	2980	561	8.45	Cc1nc(NC(=O)N2CCC3(CCCC3)C2=O)ccc1Oc1ccnc(-c2cnn(C)c2)c1 [Example 31, N-(6-methyl-5-((2-(1-methyl-1H-pyrazol-4-yl)pyridin-4-yl)oxy)pyridin-2-yl)-1-oxo-2-azaspiro[4.4]nonane-2-carboxamide]
782	667				324	Cc1nc(NC(=O)N2CCC(C)C2=O)ccc1Oc1ccnc(-c2cnn(C)c2)c1 (stereo not drawn) [Example 32, 3-methyl-N-(6-methyl-5-((2-(1-methyl-1H-pyrazol-4-yl)pyridin-4-yl)oxy)pyridin-2-yl)-2-oxopyrrolidine-1-carboxamide]
40.3	41.9	535	> 6000	> 6000	19.9	CCC1(C)CCN(C(=O)Nc2ccc(Oc3ccnc(-c4cnn(C)c4)c3)c(C)n2)C1=O (stereo not drawn) [Example 33, 3-ethyl-3-methyl-N-(6-methyl-5-((2-(1-methyl-1H-pyrazol-4-yl)pyridin-4-yl)oxy)pyridin-2-yl)-2-oxopyrrolidine-1-carboxamide]
21.5	21.3	667	> 2000	1330	51.7	CCC1(CC)CCN(C(=O)Nc2ccc(Oc3ccnc(-c4cnn(C)c4)c3)c(C)n2)C1=O [Example 34, 3,3-diethyl-N-(6-methyl-5-((2-(1-methyl-1H-pyrazol-4-yl)pyridin-4-yl)oxy)pyridin-2-yl)-2-oxopyrrolidine-1-carboxamide]
140	141				207	COCCC1(C)CCN(C(=O)Nc2ccc(Oc3ccnc(-c4cnn(C)c4)c3)c(C)n2)C1=O (stereo not drawn) [Example 37, 3-(2-methoxyethyl)-3-methyl-N-(6-methyl-5-((2-(1-methyl-1H-pyrazol-4-yl)pyridine-4-yl)oxy)pyridin-2-yl)-2-oxopyrrolidine-1-carboxamide]
35	48.3				20.2	[2H]C([2H])([2H])n1cc(-c2cc(Oc3ccc(NC(=O)N4CCCC(C)(C)C4=O)nc3C)ccn2)cn1 [Example 39, 3,3-dimethyl-N-(6-methyl-5-((2-(1-(methyl-d3)-1H-pyrazol-4-yl)pyridin-4-yl)oxy)pyridin-2-yl)-2-oxopiperidine-1-carboxamide]
> 2000	> 2000	> 18000	> 18000	> 18000	445	Cc1nc(NC(=O)N2CCC(C)(O)C2=O)ccc1Oc1ccnc(-c2cnn(C)c2)c1 (stereo not drawn) [Example 41, 3-hydroxy-3-methyl-N-(6-methyl-5-((2-(1-methyl-1H-pyrazol-4-yl)pyridin-4-yl)oxy)pyridin-2-yl)-2-oxopyrrolidine-1-carboxamide]
> 2000	> 2000				2280	CNc1cc(Oc2ccc(NC(=O)N3CCC(C)(C)C3=O)nc2C)ccn1 [Example 42, 3,3-dimethyl-N-(6-methyl-5-((2-(methylamino)pyridin-4-yl)oxy)pyridin-2-yl)-2-oxopyrrolidine-1-carboxamide]
